Results on 27 molecules are retold here after patent US20260001889A1, “COMPOSITIONS USEFUL FOR MODULATING SPLICING” (Skyhawk Therapeutics, Inc., priority 2022, published 2026).

Structures are written as SMILES.

The test system of assay [1] is ATXN3 transcripts containing exon 4. Kind of assay: ATXN3 Quantitative Splicing Assay (qPCR, E4E5 primers/probe). Format: cell-based. The note with it: Homo sapiens, SK-N-MC cells, compounds for 24 h. In a few lines:
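SK-N-MC human neuroblastoma cells treated 24 h with compound from 30 μM to 0.6 nM, 24 h after plating. Lysate cDNA was run in TaqMan qPCR, with primers/probe E4E5 detecting exon 4-containing ATXN3 transcripts and E8E9 measuring total ATXN3.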
Background: Real-time PCR tracks product formation cycle by cycle.

Another assay relates to total ATXN3 protein. Briefly: ATXN3 Total Protein Assay (Mesoscale Discovery, SK-N-MC cells). Format: cell-based, Human. The note with it: incubation for 48 hours, MSD assay. In a few lines:
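Human SK-N-MC neuroblastoma cells treated with compound at 30 μM to 0.6 nM for 48 h, then lysed with protease inhibitors. Total ATXN3 quantified by MSD sandwich immunoassay (mouse capture, rabbit detect antibodies, anti-rabbit MSD-ST secondary) against recombinant ATXN3 standards.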

The next assay concerns ATXN3-HiBiT protein. Kind of assay: ATXN3 Total Protein Assay (Kelly-ATXN3-HiBiT luminescence). Format: cell-based. The note with it: Kelly-ATXN3-HiBiT cells, 48 h after addition of compound. In outline: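 Kelly cells with homozygous C-terminal HiBiT knock-in on endogenous ATXN3, 2000 per well, dosed 24 h after seeding. HiBiT lytic luminescence read 48 h after compound; sister plate read with CellTiter-Glo for viability; fold change vs DMSO.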

Turning to `COC[C@H](N)Cc1oc2c(NCc3ccncc3)cc(Cl)nc2c1Br` [Compound 48, (R)-2-(2-amino-3-methoxypropyl)-3-bromo-5-chloro-N-(pyridin-4-ylmethyl)furo[3,2-b]pyridin-7-amine], the half-inhibitory concentration (IC50) (in assay [1]; with total ATXN3 protein) was 101 to 500 nM throughout. In addition, the EC50 – broadly, the concentration at which the effect is half-maximal – with ATXN3-HiBiT protein was in the range of 101 to 500 nM.

For `C[C@H](N)Cc1oc2c(NCc3cccs3)cc(Cl)nc2c1-c1ccco1` [Compound 311, 2-[(S)-2-aminopropyl]-5-chloro-3-(2-furyl)-7-thenylamino-1-oxa-4-azaindene], the half-inhibitory concentration (IC50) – broadly, the concentration that inhibits the measured activity by half – was 501 to 5000 nM in assay [1] and 5000 to 10000 nM in the assay on total ATXN3 protein. Further, the EC50 in the assay on ATXN3-HiBiT protein fell in the range of 501 to 5000 nM.

Take `Cc1c(C[C@@H](N)[C@H](C)F)oc2c(NCc3ccccc3)cc(Cl)nc12` [Compound 107, 2-[(2R,3S)-2-amino-3-fluorobutyl]-7-benzylamino-5-chloro-3-methyl-1-oxa-4-azaindene]: the values for the 50% inhibitory concentration (IC50) (in assay [1]; in the assay with total ATXN3 protein) were 101 to 500 nM and 501 to 5000 nM, respectively. Besides, in the assay with ATXN3-HiBiT protein, the EC50 was in the range of 101 to 500 nM.

For `Cc1c(C[C@@H](N)CC2CC2)oc2c(NCc3cccs3)cc(Cl)nc12` [Compound 14, 2-[(S)-2-amino-3-cyclopropylpropyl]-5-chloro-3-methyl-7-thenylamino-1-oxa-4-azaindene], the IC50 (in assay [1]; in the assay with total ATXN3 protein) was 101 to 500 nM each time. Also, the EC50 in the assay on ATXN3-HiBiT protein lay within 0.01 to 100 nM.

Turning to `C[C@H](F)[C@H](N)Cc1oc2c(NCc3nccs3)cc(Cl)nc2c1Cl` [Compound 109, 2-[(2R,3S)-2-amino-3-fluorobutyl]-3,5-dichloro-7-{[(1,3-thiazol-2-yl)methyl]amino}-1-oxa-4-azaindene], the IC50 (in assay [1]; in the assay with total ATXN3 protein) was 0.01 to 100 nM throughout. Moreover, in the assay on ATXN3-HiBiT protein, the EC50 fell in the range of 101 to 500 nM.

Turning to `C[C@@H](F)[C@H](N)Cc1oc2c(NCc3cccs3)cc(Cl)nc2c1Br` [Compound 44, 2-[(2R,3R)-2-amino-3-fluorobutyl]-3-bromo-5-chloro-7-thenylamino-1-oxa-4-azaindene], the half-maximal inhibitory concentration (IC50) (in assay [1]; with total ATXN3 protein) was 101 to 500 nM in each case. Moreover, the EC50 with ATXN3-HiBiT protein is 101 to 500 nM.

`N[C@H](Cc1oc2c(NCc3cccs3)cc(Cl)nc2c1Br)C1COC1` [Compound 98, 2-[(R)-2-amino-2-(3-oxetanyl)ethyl]-3-bromo-5-chloro-7-thenylamino-1-oxa-4-azaindene]: the half-maximal inhibitory concentration (IC50) (in assay [1]; in the assay with total ATXN3 protein) was 501 to 5000 nM in each case. In addition, in the assay on ATXN3-HiBiT protein, the concentration giving a half-maximal response (EC50) lay in the range of 501 to 5000 nM.

Take `C[C@H](N)Cc1oc2c(NCc3ccco3)cc(Cl)nc2c1C#N` [Compound 238, 2-[(S)-2-aminopropyl]-5-chloro-7-(furfurylamino)-1-oxa-4-aza-3-indenecarbonitrile]: the IC50 (in assay [1]; in the assay on total ATXN3 protein) was 10000 to 40000 nM throughout. Further, the 50% effective concentration (EC50) in the assay with ATXN3-HiBiT protein was 10000 to 40000 nM.

As for `C#CC[C@H](N)Cc1oc2c(NCc3cccs3)cc(Cl)nc2c1Br` [Compound 77, 2-[(S)-2-amino-4-pentynyl]-3-bromo-5-chloro-7-thenylamino-1-oxa-4-azaindene], the IC50 (in assay [1]; in the assay with total ATXN3 protein) was 0.01 to 100 nM throughout. Besides, the EC50 in the assay on ATXN3-HiBiT protein was in the range of 0.01 to 100 nM.

`C[C@H](F)[C@H](N)Cc1oc2c(NCc3sccc3F)cc(Cl)nc2c1Br` [Compound 96, 2-[(2R,3S)-2-amino-3-fluorobutyl]-3-bromo-5-chloro-7-{[(3-fluoro-2-thienyl)methyl]amino}-1-oxa-4-azaindene]: the IC50 (in assay [1]; with total ATXN3 protein) was 101 to 500 nM each time. For the same molecule, in the assay with ATXN3-HiBiT protein, the concentration giving a half-maximal response (EC50) was in the range of 101 to 500 nM.

Take `Cc1c(C[C@@H](N)[C@H](C)F)oc2c(NCc3sccc3F)cc(Cl)nc12` [Compound 142, 2-[(2R,3S)-2-amino-3-fluorobutyl]-5-chloro-7-{[(3-fluoro-2-thienyl)methyl]amino}-3-methyl-1-oxa-4-azaindene]: the IC50 (in assay [1]; with total ATXN3 protein) was 101 to 500 nM each time. Further, the concentration giving a half-maximal response (EC50) with ATXN3-HiBiT protein was 101 to 500 nM.

`C[C@H](F)[C@H](N)Cc1oc2c(NCc3cccs3)cc(Cl)nc2c1Cl` [Compound 148, 2-[(2R,3S)-2-amino-3-fluorobutyl]-3,5-dichloro-7-thenylamino-1-oxa-4-azaindene]: the IC50 (in assay [1]; in the assay with total ATXN3 protein) was 0.01 to 100 nM throughout. The EC50 in the assay on ATXN3-HiBiT protein is 0.01 to 100 nM.

For `Cc1coc(-c2c(C[C@H](C)N)oc3c(NCc4cccs4)cc(Cl)nc23)n1` [Compound 321, 2-[(S)-2-aminopropyl]-5-chloro-3-(4-methyl-1,3-oxazol-2-yl)-7-thenylamino-1-oxa-4-azaindene], the half-maximal inhibitory concentration (IC50) (in assay [1]; with total ATXN3 protein) was 501 to 5000 nM each time. In addition, the EC50 in the assay on ATXN3-HiBiT protein lay within 501 to 5000 nM.

As for `C[C@H](N)Cc1oc2c(NCc3nccs3)cc(Cl)nc2c1Cl` [Compound 57, 2-[(S)-2-aminopropyl]-3,5-dichloro-7-{[(1,3-thiazol-2-yl)methyl]amino}-1-oxa-4-azaindene], the concentration for half-maximal inhibition (IC50) (in assay [1]; with total ATXN3 protein) was 101 to 500 nM throughout. The same molecule yielded an EC50 with ATXN3-HiBiT protein of 101 to 500 nM.

With `C#Cc1c(C[C@@H](N)COC)oc2c(NCc3nccs3)cc(Cl)nc12` [Compound 65, 2-[(R)-2-amino-3-methoxypropyl]-5-chloro-3-ethynyl-7-{[(1,3-thiazol-2-yl)methyl]amino}-1-oxa-4-azaindene], the IC50 (in assay [1]; in the assay with total ATXN3 protein) was 101 to 500 nM throughout. For the same molecule, the EC50 in the assay with ATXN3-HiBiT protein was in the range of 101 to 500 nM.

On to `C[C@H](F)[C@H](N)Cc1oc2c(NCc3cccs3)cc(Cl)nc2c1C#N` [Compound 237, 2-[(2R,3S)-2-amino-3-fluorobutyl]-5-chloro-7-[(thiophen-2-ylmethyl)amino]furo[3,2-b]pyridine-3-carbonitrile], for which the IC50 in assay [1] is 10000 to 40000 nM; with total ATXN3 protein, 5000 to 10000 nM. Further, the EC50 with ATXN3-HiBiT protein fell in the range of 10000 to 40000 nM.

Turning to `C[C@H](F)[C@H](N)Cc1oc2c(NCc3ccc(F)s3)cc(Cl)nc2c1Br` [Compound 94, 2-[(2R,3S)-2-amino-3-fluorobutyl]-3-bromo-5-chloro-7-{[(5-fluoro-2-thienyl)methyl]amino}-1-oxa-4-azaindene], the concentration for half-maximal inhibition (IC50) (in assay [1]; in the assay on total ATXN3 protein) was 101 to 500 nM in each case. Besides, the EC50 in the assay with ATXN3-HiBiT protein lay within 101 to 500 nM.

As for `Cc1c(C[C@@H](N)CCF)oc2c(NCc3cccs3)cc(Cl)nc12` [Compound 31, 2-[(2R)-2-amino-4-fluorobutyl]-5-chloro-3-methyl-N-(thiophen-2-ylmethyl)furo[3,2-b]pyridin-7-amine], the IC50 (in assay [1]; in the assay with total ATXN3 protein) was 101 to 500 nM each time. The same molecule yielded a concentration for a half-maximal effect (EC50) in the assay with ATXN3-HiBiT protein of 101 to 500 nM.

With `[2H]C([2H])(Nc1cc(Cl)nc2c(Br)c(C[C@H](C)N)oc12)c1cccs1` [Compound 221, 2-[(S)-2-aminopropyl]-3-bromo-5-chloro-7-{[(2-thienyl)(^2H2)methyl]amino}-1-oxa-4-azaindene], the concentration for half-maximal inhibition (IC50) (in assay [1]; with total ATXN3 protein) was 0.01 to 100 nM in each case. This molecule had a 50% effective concentration (EC50) in the assay with ATXN3-HiBiT protein of 0.01 to 100 nM.

`[2H][C@](N)(COC)Cc1oc2c(NCc3cccs3)cc(Cl)nc2c1Br` [Compound 285, 2-[(R)-2-amino-3-methoxy(2-^2H)propyl]-3-bromo-5-chloro-7-thenylamino-1-oxa-4-azaindene]: the IC50 in assay [1] lay in the range of 101 to 500 nM; with total ATXN3 protein it was 0.01 to 100 nM. Besides, the EC50 with ATXN3-HiBiT protein was in the range of 0.01 to 100 nM.

On to `C[C@H](N)Cc1oc2c(NCc3ccccc3F)cc(Cl)nc2c1Br` [Compound 340, 2-[(S)-2-aminopropyl]-3-bromo-5-chloro-7-{[(o-fluorophenyl)methyl]amino}-1-oxa-4-azaindene], for which the half-inhibitory concentration (IC50) (in assay [1]; with total ATXN3 protein) was 501 to 5000 nM in each case. The half-maximal effective concentration (EC50) in the assay with ATXN3-HiBiT protein was 501 to 5000 nM.

In the case of `C#Cc1c(C[C@H](C)N)oc2c(NCc3nccs3)cc(Cl)nc12` [Compound 62, 2-[(S)-2-aminopropyl]-5-chloro-3-ethynyl-7-{[(1,3-thiazol-2-yl)methyl]amino}-1-oxa-4-azaindene], the half-inhibitory concentration (IC50) (in assay [1]; with total ATXN3 protein) was 101 to 500 nM throughout. Also, the EC50 in the assay on ATXN3-HiBiT protein was in the range of 0.01 to 100 nM.

As to `C/C=C/c1c(C[C@H](C)N)oc2c(NCc3cccs3)cc(Cl)nc12` [Compound 253, 3-[(E)-1-propenyl]-2-[(S)-2-aminopropyl]-5-chloro-7-thenylamino-1-oxa-4-azaindene], the IC50 (in assay [1]; in the assay with total ATXN3 protein) was 501 to 5000 nM in each case. This molecule also had an EC50 in the assay with ATXN3-HiBiT protein of 10000 to 40000 nM.

`N[C@@H](CCF)Cc1oc2c(NCc3cccs3)cc(Cl)nc2c1Br` [Compound 145, 2-[(R)-2-amino-4-fluorobutyl]-3-bromo-5-chloro-7-thenylamino-1-oxa-4-azaindene]: the IC50 (in assay [1]; with total ATXN3 protein) was 101 to 500 nM each time. In addition, the EC50 in the assay on ATXN3-HiBiT protein fell in the range of 101 to 500 nM.

As to `C[C@H](N)Cc1oc2c(NCc3ccco3)cc(C#N)nc2c1Br` [Compound 36, 2-[(S)-2-aminopropyl]-3-bromo-7-(furfurylamino)-1-oxa-4-aza-5-indenecarbonitrile], the IC50 (in assay [1]; in the assay with total ATXN3 protein) was 501 to 5000 nM throughout. For the same molecule, the EC50 with ATXN3-HiBiT protein lay in the range of 501 to 5000 nM.

On to `C[C@H](N)Cc1oc2c(NCc3cccs3)cc(C#N)nc2c1Br` [Compound 35, 2-[(S)-2-aminopropyl]-3-bromo-7-thenylamino-1-oxa-4-aza-5-indenecarbonitrile], for which the IC50 (in assay [1]; in the assay with total ATXN3 protein) was 101 to 500 nM in each case. This molecule also came in with an EC50 with ATXN3-HiBiT protein of 101 to 500 nM.

For the molecule `C[C@H](N)Cc1oc2c(NCc3ccco3)cc(Cl)nc2c1Br` [Compound 34, 2-[(S)-2-aminopropyl]-3-bromo-5-chloro-7-(furfurylamino)-1-oxa-4-azaindene], the half-maximal inhibitory concentration (IC50) (in assay [1]; in the assay with total ATXN3 protein) was 0.01 to 100 nM throughout. Also, the concentration giving a half-maximal response (EC50) with ATXN3-HiBiT protein lay in the range of 0.01 to 100 nM.
